Reference: patent US20230023559A1, “ARYLMETHYLENE HETEROCYCLIC COMPOUNDS AS KV1.3 POTASSIUM SHAKER CHANNEL BLOCKERS” (D. E. Shaw Research, LLC, priority 2019, published 2023)

Columns and labels:
[1] = molecular target: hERG channel (Homo sapiens, UniProt Q12809); assay: hERG electrophysiology, automated whole-cell patch clamp (Patchliner)
[2] = molecular target: T1, Kv1.3 potassium channel (Homo sapiens, UniProt P22001); assay: Kv1.3 potassium channel blocker activity, automated whole-cell patch clamp (Patchliner); format: cell-based; conditions: CHO-K1 cells stably expressing Kv1.3; whole cell current inhibition; read-out: Kv1.3_IC50
T1 construct: expressed in transfected cells
How it was run: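 Peak-current block was recorded on stable Kv1.3 CHO-K1 cells by automated patch clamp, stepping from a −90 mV holding potential to +40 mV for 100 ms at 0.1 Hz with 10 s breaks between trains. Online P/4 leak subtraction, 10 kHz sampling; compound exposure under 10 s per train.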

T1 sequence (P22001 whole entry): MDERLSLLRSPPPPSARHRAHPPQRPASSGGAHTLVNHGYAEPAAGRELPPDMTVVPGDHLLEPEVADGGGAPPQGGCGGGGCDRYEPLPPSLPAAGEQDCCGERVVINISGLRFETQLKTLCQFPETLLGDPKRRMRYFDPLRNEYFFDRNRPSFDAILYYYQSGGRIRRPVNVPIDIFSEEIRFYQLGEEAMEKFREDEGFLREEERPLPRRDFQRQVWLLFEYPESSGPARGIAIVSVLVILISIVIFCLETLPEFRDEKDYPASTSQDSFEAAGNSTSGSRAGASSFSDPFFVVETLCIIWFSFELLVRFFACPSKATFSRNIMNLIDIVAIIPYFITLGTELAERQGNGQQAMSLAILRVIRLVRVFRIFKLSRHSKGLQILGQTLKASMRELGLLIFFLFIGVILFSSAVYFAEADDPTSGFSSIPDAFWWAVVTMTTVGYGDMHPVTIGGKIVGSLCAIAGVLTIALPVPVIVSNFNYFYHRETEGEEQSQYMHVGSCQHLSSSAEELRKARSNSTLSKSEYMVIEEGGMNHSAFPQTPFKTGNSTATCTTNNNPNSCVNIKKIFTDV
Sequence of hERG channel (Q12809 whole entry): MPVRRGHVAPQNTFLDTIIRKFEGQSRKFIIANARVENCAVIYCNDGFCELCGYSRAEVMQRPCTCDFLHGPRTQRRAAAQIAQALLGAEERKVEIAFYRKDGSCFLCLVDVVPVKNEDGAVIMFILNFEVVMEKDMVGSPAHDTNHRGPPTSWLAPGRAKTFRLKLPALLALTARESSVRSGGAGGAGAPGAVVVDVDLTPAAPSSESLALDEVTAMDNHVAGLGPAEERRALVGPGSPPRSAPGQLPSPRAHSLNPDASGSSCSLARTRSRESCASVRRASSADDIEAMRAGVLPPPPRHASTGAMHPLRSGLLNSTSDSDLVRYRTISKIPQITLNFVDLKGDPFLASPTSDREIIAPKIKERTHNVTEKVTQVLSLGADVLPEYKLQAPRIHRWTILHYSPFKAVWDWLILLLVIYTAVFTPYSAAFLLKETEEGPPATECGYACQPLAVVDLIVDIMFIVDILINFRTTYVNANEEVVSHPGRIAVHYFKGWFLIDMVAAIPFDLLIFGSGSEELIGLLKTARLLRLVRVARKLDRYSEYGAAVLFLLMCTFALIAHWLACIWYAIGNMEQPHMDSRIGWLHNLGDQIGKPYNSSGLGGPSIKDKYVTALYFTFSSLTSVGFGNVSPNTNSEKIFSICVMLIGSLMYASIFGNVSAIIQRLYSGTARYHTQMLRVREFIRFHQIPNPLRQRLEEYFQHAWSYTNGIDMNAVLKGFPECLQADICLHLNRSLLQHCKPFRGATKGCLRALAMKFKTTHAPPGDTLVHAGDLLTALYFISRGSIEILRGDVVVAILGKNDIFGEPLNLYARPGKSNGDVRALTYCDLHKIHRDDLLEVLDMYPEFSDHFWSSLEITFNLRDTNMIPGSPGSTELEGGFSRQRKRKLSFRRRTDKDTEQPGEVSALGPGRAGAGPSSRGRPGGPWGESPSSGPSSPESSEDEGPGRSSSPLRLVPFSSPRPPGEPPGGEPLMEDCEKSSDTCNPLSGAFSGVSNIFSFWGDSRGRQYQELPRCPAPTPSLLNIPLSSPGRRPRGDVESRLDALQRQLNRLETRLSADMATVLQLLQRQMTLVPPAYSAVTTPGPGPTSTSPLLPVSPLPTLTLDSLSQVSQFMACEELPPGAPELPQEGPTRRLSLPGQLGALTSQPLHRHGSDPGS

SMILES	IC50 [1] [µM]	IC50 [2] [µM]
O=C([C@@H]1CCNC1)N1CCC([C@@H](O)c2cc(Cl)c(Cl)cc2O)CC1 (single isomer, unassigned) [Compound 116]	> 30	< 0.5
COc1ccc(C(=O)N2CCC([C@@H](N)c3cc(Cl)c(C)cc3O)CC2)cn1 [Compound 243, 2-[(R)-amino[1-(6-methoxypyridine-3-carbonyl)piperidin-4-yl]methyl]-4-chloro-5-methylphenol trifluoroacetic acid]	< 30	< 0.5
NC(c1cc(Cl)c(Cl)cc1O)C1CCN(C(=O)c2ccccc2)CC1 (centres unmarked) [Compound 68, 2-[amino(1-benzoylpiperidin-4-yl)methyl]-4,5-dichlorophenol Trifluoroacetic Acid]	< 30	< 10
C[C@@]1(C(=O)N2CCC([C@@H](N)c3cc(Cl)c(Cl)cc3O)CC2)CCCN1 [Compound 98, (4-((R)-amino(4,5-dichloro-2-hydroxyphenyl)methyl)piperidin-1-yl)((S)-2-methylpyrrolidin-2-yl)methanone]	> 30	< 0.5
N[C@H](CO)C(=O)N1CCC([C@@H](N)c2cc(Cl)c(Cl)cc2O)CC1 [Compound 171, (2R)-2-amino-1-[4-[(R)-amino(4,5-dichloro-2-hydroxyphenyl)methyl]piperidin-1-yl]-3-hydroxypropan-1-one]	> 30	< 0.5
COC[C@@H](O)C(=O)N1CCC([C@@H](N)c2cc(Cl)c(Cl)cc2O)CC1 [Compound 197, (2R)-1-[4-[(R)-amino(4,5-dichloro-2-hydroxyphenyl)methyl]piperidin-1-yl]-2-hydroxy-3-methoxypropan-1-one trifluoroacetic acid]	> 30	< 10
N[C@@H](c1cc(Cl)c(Cl)cc1O)C1CCN(C(=O)[C@H]2CCN2)CC1 [Compound 95, (4-((R)-amino(4,5-dichloro-2-hydroxyphenyl)methyl)piperidin-1-yl)((R)-azetidin-2-yl)methanone]	> 30	< 0.5
N[C@@H](c1cc(Cl)c(Cl)cc1O)C1CCN(C(=O)[C@H]2C[C@@H](O)C2)CC1 [Compound 138, 2-[(R)-amino([1-[(1S,3S)-3-hydroxycyclo-butanecarbonyl]piperidin-4-yl])methyl]-4,5-dichlorophenol trifluoroacetic acid]	> 30	< 10
N[C@@H](c1cc(Cl)c(Cl)cc1O)C1CCN(C(=O)C2CCNC(=O)C2)CC1 (stereo partly drawn) [Compound 172, 4-[4-[(R)-amino(4,5-dichloro-2-hydroxyphenyl)methyl]piperidine-1-carbonyl] piperidin-2-one trifluoroacetic acid]	> 30	< 10
O=C([C@@H]1CCNC1)N1CCC(Cc2c(O)ccc(Cl)c2Cl)CC1 [Compound 122, 3,4-dichloro-2-([1-[(3R)-pyrrolidine-3-carbonyl]piperidin-4-yl]methyl)phenol Trifluoroacetic Acid]	< 30	< 0.5
N[C@@H](c1cc(Cl)c(Cl)cc1O)C1CCN(C(=O)C2CC3(CC(O)C3)C2)CC1 (stereo partly drawn) [Compound 320, 6-[4-[(R)-amino(4,5-dichloro-2-hydroxyphenyl)methyl]piperidine-1-carbonyl]spiro [3.3]heptan-2-ol trifluoroacetic acid]	< 30	< 10
NC(c1cc(Cl)c(Cl)cc1O)C1CCN(c2ncco2)CC1 (centres unmarked) [Compound 74, 2-[amino[1-(1,3-oxazol-2-yl)piperidin-4-yl]methyl]-4,5-dichlorophenol]	< 30	< 10
COCC(=O)N1CCC([C@@H](N)c2cc(Cl)c(Cl)cc2O)CC1 [Compound 134, 1-[4-[(R)-amino(4,5-dichloro-2-hydroxyphenyl)methyl]piperidin-1-yl]-2-methoxyethan-1-one trifluoroacetic acid]	< 30	< 0.5
N[C@@H](c1cc(Cl)c(Cl)cc1O)[C@H]1CCNC1 (single isomer, unassigned; diastereoisomer 1) [Compound 32, 2-(amino(pyrrolidin-3-yl)methyl)-4,5-dichlorophenol Trifluoroacetic Acid Diastereoisomer 1]	> 30	< 10
C[C@H](N)C(=O)N1CCC([C@@H](N)c2cc(Cl)c(Cl)cc2O)CC1 (single isomer, unassigned) [Compound 76]	> 30	< 0.5
N[C@@H](c1cc(Cl)c(Cl)cc1O)C1CCN(C(=O)C2CNC(=O)OC2)CC1 (stereo partly drawn) [Compound 279, 5-[4-[(R)-amino(4,5-dichloro-2-hydroxyphenyl)methyl]piperidine-1-carbonyl]-1,3-oxazinan-2-one trifluoroacetic acid]	> 30	< 0.5
C[C@H](CO)C(=O)N1CCC([C@@H](N)c2cc(Cl)c(Cl)cc2O)CC1 [Compound 304, (2R)-1-[4-[(R)-amino(4,5-dichloro-2-hydroxyphenyl)methyl]piperidin-1-yl]-3-hydroxy-2-methylpropan-1-one]	> 30	< 0.5
NC(=O)C(=O)N1CCC([C@@H](N)c2cc(Cl)c(Cl)cc2O)CC1 [Compound 206, 2-[4-[(R)-amino(4,5-dichloro-2-hydroxyphenyl)methyl]piperidin-1-yl]-2-oxoacetamide trifluoroacetic acid]	> 30	< 0.5
N[C@@H](c1cc(Cl)c(Cl)cc1O)C1CCN(C(=O)C23CC(O)(C2)C3)CC1 [Compound 160, 3-[4-[(R)-amino(4,5-dichloro-2-hydroxyphenyl)methyl]piperidine-1-carbonyl]bicyclo [1.1.1]pentan-1-ol trifluoroacetic acid]	< 30	< 10
Cc1cc(O)c([C@H](N)C2CCN(C(=O)c3ccc(=O)[nH]c3)CC2)c(F)c1Cl [Compound 272, 5-[4-[(R)-amino(3-chloro-2-fluoro-6-hydroxy-4-methylphenyl)methyl]piperidine-1-carbonyl]-1H-pyridin-2-one Trifluoroacetic Acid]	> 30	< 0.5
N[C@@H](c1cc(Cl)c(Cl)cc1O)C1CCN(C(=O)[C@H]2CCC(=O)N2)CC1 [Compound 165, (5R)-5-[4-[(R)-amino(4,5-dichloro-2-hydroxyphenyl)methyl]piperidine-1-carbonyl] pyrrolidin-2-one trifluoroacetic acid]	> 30	< 0.5
C[C@@H](O)[C@@H](N)C(=O)N1CCC([C@@H](N)c2cc(Cl)c(Cl)cc2O)CC1 [Compound 199, (2R,3R)-2-amino-1-[4-[(R)-amino(4,5-dichloro-2-hydroxyphenyl)methyl]piperidin-1-yl]-3-hydroxybutan-1-one trifluoroacetic acid]	> 30	< 0.5
Cc1cc(O)c([C@H](N)C2CCN(C(=O)[C@H](O)CO)CC2)cc1C [Compound 293, (2R)-1-[4-[(R)-amino(2-hydroxy-4,5-dimethylphenyl)methyl]piperidin-1-yl]-2,3-dihydroxypropan-1-one Trifluoroacetic Acid]	> 30	< 0.5
NC(=O)N1CCC([C@H](N)c2cc(Cl)c(Cl)cc2O)CC1 (single isomer, unassigned) [Compound 81]	> 30	< 0.5
CN1CCC(C(N)c2cc(Cl)c(Cl)cc2O)CC1 (centres unmarked) [Compound 21, 2-(amino(1-methylpiperidin-4-yl)methyl)-4,5-dichlorophenol]	< 30	< 10
